On to `COC(=O)N1CC[C@@H](Nc2ncccc2-c2cnc3[nH]ccc3n2)C1` [Example I-4, (R)-3-[3-(5H-Pyrrolo[2,3-b]pyrazin-2-yl)-pyridin-2-ylamino]-pyrrolidine-1-carboxylic acid methyl ester], for which the melting point was in the range of 221 to 224 °C.
In the case of `CS(=O)(=O)N1CC[C@@H](Nc2ncccc2-c2cnc3[nH]ccc3n2)C1` [Example I-5, ((R)-1-Methanesulfonyl-pyrrolidin-3-yl)-[3-(5H-pyrrolo[2,3-b]pyrazin-2-yl)-pyridin-2-yl]-amine], the melting point was 224 to 226 °C.
The result for `COC(=O)N1CC[C@H](Nc2ncccc2-c2cnc3[nH]ccc3n2)C1` [Example I-10, (S)-3-[3-(5H-Pyrrolo[2,3-b]pyrazin-2-yl)-pyridin-2-ylamino]-pyrrolidine-1-carboxylic acid methyl ester] reads 222 to 225 °C; that for `CS(=O)(=O)N1CC[C@H](Nc2ncccc2-c2cnc3[nH]ccc3n2)C1` [Example I-11, ((S)-1-Methanesulfonyl-pyrrolidin-3-yl)-[3-(5H-pyrrolo[2,3-b]pyrazin-2-yl)-pyridin-2-yl]-amine], 222 to 224 °C.
Compound `CC(=O)N1CCCCC(Nc2ncccc2-c2cnc3[nH]ccc3n2)C1` (stereo not shown) [Example I-12, 1-{3-[3-(5H-Pyrrolo[2,3-b]pyrazin-2-yl)-pyridin-2-ylamino]-azepan-1-yl}-ethanone] returned a melting point of 100 to 110 °C.
`COC(=O)N1CCCCC(Nc2ncccc2-c2cnc3[nH]ccc3n2)C1` (stereo not shown) [Example I-13, 3-[3-(5H-Pyrrolo[2,3-b]pyrazin-2-yl)-pyridin-2-ylamino]-azepane-1-carboxylic acid methyl ester]: the melting point lay within 90 to 100 °C.
Next, `CS(=O)(=O)N1CCCCC(Nc2ncccc2-c2cnc3[nH]ccc3n2)C1` (stereo not shown) [Example I-14, (1-Methane-sulfonyl-azepan-3-yl)-[3-(5H-pyrrolo[2,3-b]pyrazin-2-yl)-pyridin-2-yl]-amine]: 213 to 216 °C; `CCS(=O)(=O)N1CC[C@@H](Nc2ncccc2-c2cnc3[nH]ccc3n2)C1` [Example I-16, ((R)-1-Ethanesulfonyl-pyrrolidin-3-yl)-[3-(5H-pyrrolo[2,3-b]pyrazin-2-yl)-pyridin-2-yl]-amine]: 230 to 232 °C; `CCCS(=O)(=O)N1CC[C@@H](Nc2ncccc2-c2cnc3[nH]ccc3n2)C1` [Example I-17, [(R)-1-(Propane-1-sulfonyl)-pyrrolidin-3-yl]-[3-(5H-pyrrolo[2,3-b]pyrazin-2-yl)-pyridin-2-yl]-amine]: 198 to 200 °C.
`CC(C)S(=O)(=O)N1CC[C@@H](Nc2ncccc2-c2cnc3[nH]ccc3n2)C1` [Example I-18, [(R)-1-(Propane-2-sulfonyl)-pyrrolidin-3-yl]-[3-(5H-pyrrolo[2,3-b]pyrazin-2-yl)-pyridin-2-yl]-amine] gave a melting point of 187 to 189 °C.
On to `CC(C)CS(=O)(=O)N1CC[C@@H](Nc2ncccc2-c2cnc3[nH]ccc3n2)C1` [Example I-19, [(R)-1-(2-Methyl-propane-1-sulfonyl)-pyrrolidin-3-yl]-[3-(5H-pyrrolo[2,3-b]pyrazin-2-yl)-pyridin-2-yl]-amine], for which the melting point is 134 to 137 °C.
`CCC(=O)N1CC[C@@H](Nc2ncccc2-c2cnc3[nH]ccc3n2)C1` [Example I-20, 1-{(R)-3-[3-(5H-Pyrrolo[2,3-b]pyrazin-2-yl)-pyridin-2-ylamino]-pyrrolidin-1-yl}-propan-1-one] yielded a melting point of 105 to 110 °C.
In turn, `CCCC(=O)N1CC[C@@H](Nc2ncccc2-c2cnc3[nH]ccc3n2)C1` [Example I-21, 1-{(R)-3-[3-(5H-Pyrrolo[2,3-b]pyrazin-2-yl)-pyridin-2-ylamino]-pyrrolidin-1-yl}-butan-1-one] registered a melting point of 115 to 120 °C.
On to `CCCS(=O)(=O)N1C[C@@H](C)C[C@H](Nc2ncccc2-c2cnc3[nH]ccc3n2)C1` [Example I-25, [(3S,5S)-5-Methyl-1-(propane-1-sulfonyl)-piperidin-3-yl]-[3-(5H-pyrrolo[2,3-b]pyrazin-2-yl)-pyridin-2-yl]-amine], for which the melting point lay within 178 to 180 °C.
As to `CC(C)CCS(=O)(=O)N1CC[C@@H](Nc2ncccc2-c2cnc3[nH]ccc3n2)C1` [Example I-27, [(R)-1-(3-Methyl-butane-1-sulfonyl)-pyrrolidin-3-yl]-[3-(5H-pyrrolo[2,3-b]pyrazin-2-yl)-pyridin-2-yl]-amine], the melting point is 160 to 162 °C.
`Cc1ccc(-c2cnc3[nH]ccc3n2)c(NC2CCCN(S(C)(=O)=O)C2)n1` (stereo not shown) [Example I-31, (1-Methane-sulfonyl-piperidin-3-yl)-[6-methyl-3-(5H-pyrrolo[2,3-b]pyrazin-2-yl)-pyridin-2-yl]-amine]: the melting point fell in the range of 253 to 255 °C.
`FC(F)(F)CN1CCC[C@H](Nc2ncccc2-c2cnc3[nH]ccc3n2)C1` [Example I-33, [3-(5H-Pyrrolo[2,3-b]pyrazin-2-yl)-pyridin-2-yl]-[(S)-1-(2,2,2-trifluoro-ethyl)-piperidin-3-yl]-amine] displayed a melting point of 207 to 209 °C.
Take `CCS(=O)(=O)N1CCCC(Nc2nc(C)ccc2-c2cnc3[nH]ccc3n2)C1` (stereo not shown) [Example I-34, (1-Ethane-sulfonyl-piperidin-3-yl)-[6-methyl-3-(5H-pyrrolo[2,3-b]pyrazin-2-yl)-pyridin-2-yl]-amine]: the melting point is 204 to 207 °C.
In turn, `Cc1ccc(-c2cnc3[nH]ccc3n2)c(NC2CCCN(S(=O)(=O)CC(C)(C)C)C2)n1` (stereo not shown) [Example I-36, [1-(2,2-Dimethyl-propane-1-sulfonyl)-piperidin-3-yl]-[6-methyl-3-(5H-pyrrolo[2,3-b]pyrazin-2-yl)-pyridin-2-yl]-amine] had a melting point of 218 to 220 °C.
In turn, `CS(=O)(=O)N1CCCC(Nc2ncccc2-c2cnc3[nH]ccc3n2)CC1` (stereo not shown) [Example I-37, (1-Methane-sulfonyl-azepan-4-yl)-[3-(5H-pyrrolo[2,3-b]pyrazin-2-yl)-pyridin-2-yl]-amine] showed a melting point of 215 to 217 °C.
The compound `O=S(=O)(CC1CC1)N1CCC[C@H](Nc2ncccc2-c2cnc3[nH]ccc3n2)C1` [Example I-38, ((S)-1-Cyclopropyl-methanesulfonyl-piperidin-3-yl)-[3-(5H-pyrrolo[2,3-b]pyrazin-2-yl)-pyridin-2-yl]-amine] displayed a melting point of 209 to 212 °C.
On to `CC(=O)N1CCCC(Nc2nc(C)ccc2-c2cnc3[nH]cc(Cl)c3n2)C1` (stereo not shown) [Example I-39, 1-{3-[3-(7-Chloro-5H-pyrrolo[2,3-b]pyrazin-2-yl)-6-methyl-pyridin-2-ylamino]-piperidin-1-yl}-ethanone], for which the melting point was in the range of 254 to 259 °C.
